US4239778A, “Azaprostanoic acid analogs and their use as inhibitors of platelet aggregation” (priority 1978, dated 1980)
Entries after “also recorded” stand apart in the source; their conditions may differ.

Legend:
[1] = test system: platelets (human platelet rich plasma); experiment: ADP-induced primary (reversible) platelet aggregation; assay type: cell-based; details: 100 μM, 2 min. pretreatment; 10 μM ADP
From the text: No effect was observed on the ADP-induced primary aggregation of platelets.

[2] = biological target: T1, prostaglandin synthetase (cyclooxygenase) (Bos taurus, UniProt O62664); experiment: Inhibition of prostaglandin synthetase (cyclooxygenase): arachidonic acid-dependent formation of adrenochrome from L-epinephrine; assay type: biochemical, bovine (seminal vesicles); details: for inhibition of cyclooxygenase (in words) / inhibition at 500 µM: 5×10^-4 M; for inhibition at 500 µM: read-out: inhibitory activity on cyclooxygenase
T1 construct: adrenochrome assay with arachidonic acid
T1 sequence (O62664 25-600): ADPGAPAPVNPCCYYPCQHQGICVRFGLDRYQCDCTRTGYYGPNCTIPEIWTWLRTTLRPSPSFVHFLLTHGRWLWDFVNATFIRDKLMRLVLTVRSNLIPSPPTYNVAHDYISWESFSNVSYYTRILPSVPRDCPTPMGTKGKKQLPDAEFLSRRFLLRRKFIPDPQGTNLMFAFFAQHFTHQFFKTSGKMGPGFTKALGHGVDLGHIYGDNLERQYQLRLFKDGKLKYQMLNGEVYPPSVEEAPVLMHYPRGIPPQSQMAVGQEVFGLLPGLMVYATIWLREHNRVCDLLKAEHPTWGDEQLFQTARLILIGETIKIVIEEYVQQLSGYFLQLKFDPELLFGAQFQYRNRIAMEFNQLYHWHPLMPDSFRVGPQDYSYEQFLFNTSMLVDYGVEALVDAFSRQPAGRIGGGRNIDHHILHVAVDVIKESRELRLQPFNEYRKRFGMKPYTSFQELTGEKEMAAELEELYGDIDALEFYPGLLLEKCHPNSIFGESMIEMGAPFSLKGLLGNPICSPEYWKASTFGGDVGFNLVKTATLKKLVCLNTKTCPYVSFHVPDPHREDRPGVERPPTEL
Protocol: A representative sample of the 13-azaprostanoic acid derivatives, and cis-15-azaprostanoic acid were tested for their effect as inhibitors of prostaglandin synthetase (cyclooxygenase). The basis of the assay is the measurement of the arachidonic acid-dependent formation of adrenochrome from L-peinephrine during prostaglandin biosynthesis [See, generally, the procedure of Takaguchi, et al., Prostaglandins, 2, 169 (1972)].
In order to check the possibility that the compounds might be inhibitors of the cyclooxygenase enzyme, they were tested in a standard prostaglandin biosynthesis assay according to the method of Takagushi, et al., Prostaglandins, 2, 169 (1972). The basis of the assay is the measurement of the arachidonic acid-dependent formation of adrenochrome from L-epinephrine during prostaglandin biosynthesis. Although the assay is an indirect measurement of cyclooxygenase activity, it offers the advantage that total enzyme activity is measured and is not limited to the measurement of any one product of the biotransformation.

platelets (human PRP) = experiment: Arachidonic acid-induced platelet aggregation (method of Born); assay type: cell-based; details: for inhibition of arachidonic acid-induced platelet aggregation (in words): 10 μM inhibitor; for inhibition at 10 µM: Homo sapiens, Platelet, human PRP
Protocol: The effect of various azaprostanoic acids of the invention on arachidonic acid-induced platelet aggregation was determined according to the method of Born, Nature, 194, 927 (1962). At a concentration of 10 μM, trans-13-azaprostanoic acid, and cis-15-azaprostanoic acid, inhibit aggregation 100% and 91%, respectively in response to 300 μM arachidonare. Both the cis and trans-13-aza-20-homoprostanoic acid analogs show significant inhibitory activity, 50% and 71%, respectively.
The relative inhibitory activities of the azaprostanoic acids were determined by varying the concentration of arachidonic acid while keeping the inhibitor concentration constant.

[3] = test system: aspirin-treated platelets (human PRP); experiment: Aggregation of aspirin-treated platelets by transferred externally generated endoperoxides/thromboxane A2; assay type: cell-based
Protocol: The effect of trans-13-azaprostanoic acid on platelet aggregation induced by externally generated endoperoxides and thromboxane A2 was investigated. The endoperoxides and thromboxane A2 were generated by the addition of 500 μM arachidonic acid to 0.75 ml of human platelet-rich plasma (PRP). […] The endoperoxides and thromboxane transferred caused the aspirin-treated platelets to aggregate.
It has been shown that the formation of thromboxanes is closely associated with the initiation of platelet aggregation and occurs rapidly (within 30 sec.) when induced by arachidonic acid. Therefore, the aggregating effect of thromboxane A2 can be studied by first generating the agent in one sample of PRP, and then transferring a portion of this to a second sample of PRP. […] Thus, any aggregation induced by transferred material is due to thromboxane A2 and/or prostaglandin endoperoxides. […] This experiment was repeated several times with identical results.

platelet rich plasma = experiment: Platelet aggregation with 500 μM arachidonic acid (Table IV); assay type: cell-based
Protocol: (§1) Platelet rich plasma was aggregated with 500 μM arachidonic acid and three minutes following arachidonate addition, aliquots of the plasma were drawn for TXB2 determinations.

[4] = test system: platelet conversion of AA to thromboxane B2 (TXB2); experiment: TXB2 formation in platelet rich plasma aggregated with arachidonic acid (radioimmunoassay); assay type: cell-based; details: AA 500 μM alone
Protocol: as §1

thromboxane synthetase = details: cited from earlier work
ADP-induced aggregation = details: vs PGE1; cited from earlier work
[5] = in vivo; cited from earlier work
cyclooxygenase = details: cited from earlier work
[6] = 10^-5 M (10 μM) inhibitor, 300 μM arachidonate
[7] = 10^-5 M inhibitor, 400 μM arachidonate
[8] = 10^-5 M inhibitor, 500 μM arachidonate

O=C(O)CCCCCC[C@@H]1CCC[C@H]1NCc1ccccc1 (relative stereo) [Example 3 trans]
effect on ADP-induced primary aggregation [1]: did not alter reversible, primary phase aggregation
inhibition of cyclooxygenase (in words) [2]: did not significantly inhibit
inhibition of arachidonic acid-induced platelet aggregation (in words) (platelets (human PRP)): inactive
inhibition at 10 µM (platelets (human PRP); [6]): 0%
inhibition at 10 µM (platelets (human PRP); [7]): 0%
inhibition at 10 µM (platelets (human PRP); [8]): 0%

CCCCCCCN[C@H]1CCC[C@H]1CCCCCCC(=O)O (relative stereo) [Example 4 cis, cis-13-Azaprostanoic acid]
effect on ADP-induced primary aggregation [1]: did not alter reversible, primary phase aggregation
inhibition of cyclooxygenase (in words) [2]: did not significantly inhibit
inhibition at 10 µM (platelets (human PRP); [6]): 43%
inhibition at 10 µM (platelets (human PRP); [7]): 11%
inhibition at 10 µM (platelets (human PRP); [8]): 0%

CCCCCCCN[C@@H]1CCC[C@H]1CCCCCCC(=O)O (relative stereo) [Example 4 trans, trans-13-azaprostanoic acid]
effect on ADP-induced primary aggregation [1]: did not alter reversible, primary phase aggregation
inhibition of cyclooxygenase (in words) [2]: did not significantly inhibit
aggregation induced by transferred thromboxane A2/endoperoxide mixture ([3]; 100 μM pre-incubation, aspirin-treated platelets): totally inhibited; also recorded: no aggregation was observed
inhibition at 10 µM (platelets (human PRP); [6]): 100%
inhibition at 10 µM (platelets (human PRP); [7]): 66%
inhibition at 10 µM (platelets (human PRP); [8]): 19%
inhibition of platelet aggregation (in words) (platelets (human PRP); summary of screening): potent inhibitors of platelet aggregation

CCCCCCN[C@@H]1CCC[C@H]1CCCCCCC(=O)O (relative stereo) [Example 5 trans, trans-13-aza-20-norprostanoic acid]
inhibition of cyclooxygenase (in words) [2]: did not significantly inhibit
inhibition at 10 µM (platelets (human PRP); [6]): 14%
inhibition at 10 µM (platelets (human PRP); [7]): 0%
inhibition at 10 µM (platelets (human PRP); [8]): 0%

CCCCCCCCN[C@H]1CCC[C@H]1CCCCCCC(=O)O (relative stereo) [Example 6 cis, cis-13-Aza-20-homoprostanoic acid]
inhibition at 500 µM [2]: ~30%
inhibition at 10 µM (platelets (human PRP); [6]): 50%
inhibition at 10 µM (platelets (human PRP); [7]): 11%
inhibition at 10 µM (platelets (human PRP); [8]): 0%

CCCCCCCCN[C@@H]1CCC[C@H]1CCCCCCC(=O)O (relative stereo) [Example 6 trans, trans-13-aza-20-homoprostanoic acid]
inhibition at 500 µM [2]: ~30%
inhibition at 10 µM (platelets (human PRP); [6]): 71%
inhibition at 10 µM (platelets (human PRP); [7]): 7%
inhibition at 10 µM (platelets (human PRP); [8]): 0%

CCCCCNCC[C@H]1CCC[C@H]1CCCCCCC(=O)O (relative stereo) [Example 8 cis, 15-Azaprostanoic acid]
effect on ADP-induced primary aggregation [1]: did not alter reversible, primary phase aggregation
inhibition at 10 µM (platelets (human PRP); [6]): 91%
inhibition at 10 µM (platelets (human PRP); [7]): 16%
inhibition at 10 µM (platelets (human PRP); [8]): 0%

CCCCCCCN[C@@H]1CCC[C@@H]1CCCCCCC(=O)O (relative stereo) [cis-13-aza]
inhibition of arachidonic acid-induced platelet aggregation (in words) (platelets (human PRP)): inactive

CCCCC/C=C\C/C=C\C/C=C\C/C=C\CCCC(=O)O [Arachidonic Acid (AA), Arachidonic Acid]
% Aggregation (platelet rich plasma; AA 500 μM alone): 80%
aggregation of aspirin-treated platelets by arachidonic acid ([3]; 500 μM arachidonic acid, aspirin 0.5 mg/ml): did not cause aggregation
TXB2 [4]: 1179 ± 37 ng/mL

CN(C)CCCOc1nn(Cc2ccccc2)c2ccccc12 [Benzydamine]
inhibition of thromboxane synthetase (in words) (thromboxane synthetase): more than twice as effective in inhibiting thromboxane synthetase than in inhibiting prostaglandin biosynthesis (cyclooxygenase)

CCCCCC[C@H](O)/C=C/[C@H]1[C@H](O)CC(=O)[C@@H]1CCCCCCC(=O)O [Example 20-homo-PGE1, 20-homo-PGE1]
potency relative to PGE1 as inhibitor of ADP-induced aggregation (ADP-induced aggregation): 3.82 times

CCCC[C@H](O)/C=C/[C@H]1[C@H](O)CC(=O)[C@@H]1CCCCCCC(=O)O [Example 20-nor-PGE1, 20-nor-PGE1]
potency relative to PGE1 as inhibitor of ADP-induced aggregation (in words) (ADP-induced aggregation): only half as potent as PGE1

CCCCC[C@H](O)/C=C/[C@H]1C(=O)C[C@H](O)[C@@H]1C/C=C\CCCC(=O)O [PGD2]
biological half-life (in words) [5]: very short biological half-lives

CCCCC[C@H](O)/C=C/[C@H]1[C@H](O)CC(=O)[C@@H]1CCCCCCC(=O)O [PGE1]
biological half-life (in words) [5]: very short biological half-lives

COc1ccc2c(c1)c(CC(=O)O)c(C)n2C(=O)c1ccc(Cl)cc1 [indomethacin, reference compound]
inhibition of aggregation (in words) (platelet rich plasma; indomethacin 20 μM): totally blocks aggregation
inhibition of prostaglandin biosynthesis (in words) ([2]; indomethacin 2×10^-5 M): completely inhibited
inhibition at 20 µM ([2]; read-out: inhibition of enzyme activity): 100%
inhibition of prostaglandin biosynthesis / cyclooxygenase (in words) (cyclooxygenase): inhibit prostaglandin biosynthesis by blocking the conversion of substrate fatty acids to endoperoxides
